In general, inhibition refers to the drop in the measured response relative to a control, in per cent.

≈ marks a conversion by molar mass, not a printed value.

The results in this text go back to patent US6211439A, “Herbicide resistance in plants” (MGI Pharma, Inc, priority 1995, dated 2001).

One assay has as its system maize seedlings. In words: Germination and seedling growth from excised mature maize embryos. It counts as in vivo. The note with it: concentration in the media, shoot growth after seven days. Here is the method: The herbicidal effects of 997 on maize seedlings were determined by evaluating germination and seedling growth from excised, mature maize embryos (Green, 1974, Crop Sci. 14: 54-58). Seeds were sterilized for 10 minutes in 0.5% hypochlorite and then imbibed for 24 hours in sterile, distilled water. Mature embryos were aseptically excised and plated on solid MS media […] containing various concentrations of 997 and no 2,4-D. Embryos were placed with their shoot axis away from the media. Shoot growth was quantitated after seven days.

For another assay, the system named is Suspension culture cells. In words: Protein synthesis: incorporation of radiolabeled amino acids into TCA-precipitable cell components. It counts as cell-based, maize. Particulars: Zea mays; 1×10^-5 M 997; cells at different post-subculture intervals; cell fresh weight basis. The protocol:
Suspension culture cells were preincubated for 48 hours in the presence or absence of 1×10^-5 M 997 and then exposed for 12 hours to 75 !Ci of either ^35 S-methionine (1210 Ci/mmol, New England Nuclear, Boston, Mass.) or ^3 H-DL-leucine (55 Ci/mmol, ICN Pharmaceuticals Inc. -K and K Laboratories, Plainview, N.Y.) per 0.1 ml of cells at a cell density of 10% volume cells/volume suspension. Cells were then centrifuged 300×g, washed with cold MS culture media, and ground with a cold mortar and pestle in the presence of one volume of 6 M urea. The resulting extract was centrifuged at 12,800×g for 5 minutes. The pellet was then reextracted and, following centrifugation, the extracts were combined. Protein was precipitated by the addition of 10% w/v trichloroacetic acid (TCA). Protein was removed by centrifugation and resolubilized in 6 M urea. Incorporation of radiolabel into protein was determined by scintillation counting.

The test system of the next assay is Corn Suspension Cultures. The experiment in a line: Free amino acid levels in suspension cultures of the embryogenic cell line used for selection. It counts as cell-based, maize. The note with it: 1 × 10^-5 M 997. The protocol: Suspension culture cells were treated for 3.5 hours or 48 hours with 1×10^-5 M 997. Cells were removed from suspension by filtration and 1 gram fresh weight quantities were ground with sand with a mortar and pestle in 1 ml 5% TCA. Four ml of 5% TCA were added and the extract centrifuged at 10,000×g for 10 minutes. The pellet was reextracted and the supernatants combined and subjected to cation exchange chromatography. The samples were applied to Bond Elut SCX columns (Analytichem International Inc., Harbor City, Calif.) which had been equilibrated with 5% TCA. Following sample application, the columns were washed with 5 ml distilled, deionized water, and the amino acids were eluted with 2 ml aliquots of 5% v/v triethylamine. The aliquots were combined (6 ml), lyophilized, and subjected to amino acid analysis with a Kontron Liquemat III amino acid analyzer (Hesber, Middlesex TW5 OQU, England).
The embryogenic cell line used in the selection for herbicide resistant cells (see Section 6.2.1) was different from the cell line used in the characterization of the site of action of 997 described in Section 6.1. Consequently, the effects of 997 on pool sizes of free amino acids in the cell line used in the selection procedure was also studied. The protocol described in Section 6.1.4 was followed for these studies.

In assay [1] the test system is Unselected culture tissue. The experiment in a line: Herbicide inhibition of plant regeneration, unselected culture tissue. The format is cell-based, maize. The protocol:
(§1) Eighty to 90 mg quantities of maize callus tissue were transferred to embryo and shoot development (regeneration) media in petri plates. The media consisted of MS basal media supplemented with 0.1 mg per liter 2,4-D and 1×10^-7 M abscissic acid. 0.25% Gelrite (Kelco Co., San Diego, Calif.) was used as a solid support in place of agar. The tissue was incubated in the dark at 26° C. (approximately 300 footcandles,soft white fluorescent) on a cycle of 14 hours light, 10 hours dark. Developing plants reaching a size of 1-3 cm were then transferred to flasks or jars, containing MS media with no supplementation, for further development. When plants reached the two to three leaf stage, they were moved to pots containing vermiculite and exposed to light at 2600 footcandles. These plants were watered with 20% v/v MS media for one week and then with water until they grew stably. The plants were then transferred to soil for growth to maturity.
The effect of various concentrations of 214 on plant regeneration embryo and shoot development were evaluated. Unselected culture tissue was transferred to regeneration media containing various concentrations of 214 ranging from 0.01 to 0.3 mg per liter. The tissue was then put through the first three weeks of the plant regeneration protocol described supra. The culture was scored after this time for the production of well defined shoots.

The test system of a further assay is line XA17 tissue. The experiment in a line: Plant regeneration from line XA17 callus in presence of herbicide. Particulars: 0.1, 0.3, and 3.0 mg per liter 214. It counts as cell-based, maize. Here is the method:
as §1
Traits which are selected for and expressed in undifferentiated cell cultures are not necessarily expressed in the differentiated organs and tissues of a developing plant. Therefore, it was necessary to examine plants regenerated from line XA17 callus tissue in the presence of normally inhibitory concentrations of 214. Line XA17 tissue was transferred to regeneration media containing 0.1, 0.3, and 3.0 mg per liter 214.

For another assay, the system named is XA17 seedlings. In words: Seedling assay, progeny of XA17 regenerated plant x B73 (heterozygous). It counts as in vivo, maize. From the text:
An XA17 regenerated plant with a normal ear was pollinated with pollen obtained from a herbicide sensitive inbred B73 plant grown from seed. Seeds were obtained and harvested approximately forty days post pollination.
(§2) Twenty control seeds and ten XA17 seeds were surface sterilized with 2.6% sodium hypochlorite for twenty minutes and then washed with sterile distilled water. The seed was imbibed overnight in sterile water containing a small quantity of the fungicide, captan (N-trichloromethylthio-4-cyclohexene-1,2-dicarboximide). The mature embryos were then excised from the seed and plated scutellum side down on solid MS media without 2,4-D. Ten control seeds were plated on media containing no 214 and ten were plated in the presence of 6×10^-8M 214 which had been incorporated into the medium after autoclaving but before gelling. All ten XA17 seeds were plated in the presence of 6×10^-8 M 214. Seedlings were evaluated seven days after plating.

The subject of assay [2] is XA17 seedlings homozygous for the herbicide resistance trait. The experiment in a line: Seedling assay, XA17 seedlings homozygous for the resistance trait. The format is in vivo, maize. The protocol: as §2
XA17 seeds homozygous for the resistance trait were obtained as described in Section 6.4.6. […] Assays were conducted as described in Section 6.4.5.

Setting [3] is: average ± standard deviation of three replicates.
Where [4] appears, read: 6×10^-8 M 214, seven days after plating.

Take `CC(C)C1(C)NC(c2ncccc2C(=O)O)=NC1=O` (centres unmarked) [compound 997, 2-(5-isopropyl-5-methyl-4-oxo-2-imidazolin-2-yl)nicotinic acid]: the “herbicide concentration giving 50% growth inhibition” value in the assay with maize seedlings is 1 to 3×10^-8 M. The compound also returned an inhibition at 10 µM in the assay on Suspension culture cells of 50 to 77%. In the assay with Corn Suspension Cultures, the “ala B/A (treated/control)” value amounted to 2.6, the “arg B/A (treated/control)” value came to 1.4, the “asp B/A (treated/control)” value is listed as 2.2 and the “glu B/A (treated/control)” value stood at 3.8. In the assay on Corn Suspension Cultures, the “gly B/A (treated/control)” value turned out to be 13.0, the “ile B/A (treated/control)” value is 2.4, the “leu B/A (treated/control)” value was found to be 0.52 and the “lys B/A (treated/control)” value was found to be 1.8. In addition, in the assay with Corn Suspension Cultures, the “met B/A (treated/control)” value worked out at 3.8, the “phe B/A (treated/control)” value was determined as 6.6, the “ser B/A (treated/control)” value is 8.7 and the “thr B/A (treated/control)” value was determined as 6.4. In the assay with Corn Suspension Cultures, the “tyr B/A (treated/control)” value came to 2.1 and the “val B/A (treated/control)” value amounted to 0.27. In addition, in the assay with Corn Suspension Cultures (setting [3]), the “Free ala level (B)” value was 5750 ± 1100 n mol per g fresh wt tissue, the “Free arg level (B)” value is given as 70 ± 60 n mol per g fresh wt tissue, the “Free asp level (B)” value was 5700 ± 650 n mol per g fresh wt tissue and the “Free glu level (B)” value is 8550 ± 210 n mol per g fresh wt tissue. In addition, in the assay with Corn Suspension Cultures (setting [3]), the “Free gly level (B)” value is reported as 3130 ± 230 n mol per g fresh wt tissue, the “Free ile level (B)” value was 220 ± 10 n mol per g fresh wt tissue, the “Free leu level (B)” value is reported as 120 ± 10 n mol per g fresh wt tissue and the “Free lys level (B)” value is reported as 230 ± 140 n mol per g fresh wt tissue. Also, in the assay with Corn Suspension Cultures (setting [3]), the “Free met level (B)” value is listed as 190 ± 80 n mol per g fresh wt tissue, the “Free phe level (B)” value is 790 ± 90 n mol per g fresh wt tissue, the “Free ser level (B)” value was 20000 ± 2000 n mol per g fresh wt tissue and the “Free thr level (B)” value is reported as 2960 ± 270 n mol per g fresh wt tissue. Besides, in the assay on Corn Suspension Cultures (setting [3]), the “Free tyr level (B)” value was 410 ± 80 n mol per g fresh wt tissue and the “Free val level (B)” value is 140 ± 10 n mol per g fresh wt tissue.
For the compound `CC(C)C1(C)NC(c2nc3ccccc3cc2C(=O)O)=NC1=O` (centres unmarked) [compound 214, 2-(5-isopropyl-5-methyl-4-oxo-2-imidazolin-2-yl)3-quinolinecarboxylic acid], the “somatic embryo development and shoot formation” value in assay [1] (0.3 mg per liter 214) is on record as “completely inhibited”. For the same compound, in assay [1] (Zea mays, 504 h, based on the number of shoots formed, first three weeks of regeneration protocol, read-out: concentration inhibiting plant regeneration 50%), the IC50 fell in the range of 0.03 to 0.1 µg/mL (≈ 0.0964 to 0.321 µM). The “plantlet development on regeneration media” value in the assay on line XA17 tissue was “Normally developing plantlets were obtained at all three herbicide levels”. Moreover, in the assay on XA17 seedlings (setting [4]), the “root length of resistant seedlings” value was 6-7 cm and the “root length of sensitive seedlings” value is reported as 0-1 cm. Besides, the “level of tolerance on an herbicide concentration basis” value in the assay on XA17 seedlings (seedlings heterozygous for the tolerance trait) is given as “at least 5 fold”. In addition, the “shoot growth inhibition at the highest concentration tested” value in assay [2] (3×10^-6 M, seedlings homozygous for the resistance trait) is recorded as “no inhibition”. In addition, the “resistance of XA17 homozygous seedlings” value in assay [2] (vs control seedlings) is reported as “at least 100 fold”.
